Results from patent US10525101B2, “Methods of treating inflammatory or autoimmune disorders with compounds that bind macrophage migration inhibitory factor” (Oregon Health & Science University, priority 2015, dated 2020).
Ends that are not written are not given here.

T1: human MIF (hMIF) (Homo sapiens, UniProt P14174)
T1 sequence (P14174 2-115 limits assumed): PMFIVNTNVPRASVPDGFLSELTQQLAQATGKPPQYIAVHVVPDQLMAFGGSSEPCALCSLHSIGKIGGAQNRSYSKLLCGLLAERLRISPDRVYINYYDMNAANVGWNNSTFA


Columns and labels:
human MIF (hMIF) = molecular target: T1, human MIF (hMIF); experiment: Competition ELISA: peptides blocking rmCD74 binding to plate-coated hMIF; settings: FIG. 2A/2B
Description: The ability of α-helix 1 and α-helix 2 peptides to compete with MIF for binding to CD74 was tested. Briefly, 50 μl of hMIF at a concentration of 0.5 μg/ml in PBS was coated onto ELISA plates for 2 hours at RT, washed 4 times with […] of PBS/0.0125% T20, blocked with 300 μl of 5% BSA in PBS, pH 7.4 for 2 hours at room temperature, and then a mixture of rmCD74 (constant concentration of 0.5 μg/ml) and competitor (SEQ ID NO: 2, SEQ ID NO: 4) at an initial concentration of 66 μM (33 μM each, mixed or 66 μM each, separately) in 5% BSA/PBS was added to the wells for 3 hours at room temperature to allow binding. Wells were thoroughly washed with PBS/T20 and the mAb PIN.1/anti-mIgG1-HRP (at 0.5 μg/ml in 5% BSA/PBS each) was used to detect the remaining rmCD74 bound to MIF. This mAb recognizes an epitope located at the N-terminus of the protein. Color was developed after adding 50 μl of TMB for 5 minutes and the reaction was stopped with 50 μl of 0.1N HCl. Data was first normalized and then analyzed using GraphPad Prism software. IC50 were calculated by fitting the curve to a competition model involving a two-binding site equation.

DRα1mMOG-35-55 = experiment: Competition ELISA: peptides competing with rmCD74 for binding to plate-coated DRα1mMOG-35-55; settings: for competition with CD74 for binding to DRα1-mMOG-35-55 (in words): FIG. 3A, FIGS. 4A/4B; for IC50: FIGS. 4A and 4B, peptides combined or alone, read-out: IC50 for blocking rmCD74 binding to DRα1mMOG-35-55; for LogIC50 vs DRα1mMOG-35-55 / IC50 vs DRα1mMOG-35-55: Table 1, from FIG. 3A, one-binding site fit; for IC50 vs DRα1mMOG-35-55: rmCD74 50 nM
Description: (§1) Competition of peptides with rmCD74 for binding to RTL1000 or DRα1mMOG35-55 was also tested. Briefly, 50 μl of 1 μg/ml either RTL1000 or DRα1mMOG-35-55 were coated onto ELISA plates at 25° C. for 2 hours. Each well was washed 4 times with 300 μl of PBS/0.0125% Tween 20 (PBS/T20) to remove excess of protein and then blocked with 5% BSA/PBS at pH 7.4 (BSA/PBS) for 2 hours at the same temperature. Serial 1:2 dilutions of α-helix 1 or α-helix 2 (starting with a concentration of 66 μM, 50 μg/ml each) were prepared in rmCD74 (in BSA/PBS, 50 nM, 0.5 ug/ml) and added to the plate. Competition for the binding site was allowed for 3 hours at 25° C. and then unbound complexes were washed 4 times with PBS/T20. Remaining rmCD74 bound to RTL1000 or DRα1mMOG-35-55 was detected by the PIN.1/anti-mouse IgG1-HRP at 1 ul/ml of both in BSA/PBS for 1.5 hours at 25° C. and visualized by adding TMB substrate (50 μl, according to the manufacturer's instructions). Color development was stopped with 0.1N HCl and the plate was read at 450 nm in an ELISA plate reader. Data were normalized and fitted to a one-binding site model and competitor concentration was plotted against Absorbance at 450 nm to determine the IC50 of each peptide competitor. All data were analyzed using Prism software (GraphPad).

RTL1000 = experiment: Competition ELISA: peptides competing with rmCD74 for binding to plate-coated RTL1000; settings: for competition with CD74 for binding to RTL1000 (in words): FIG. 3A; for LogIC50 vs RTL 1000 / IC50 vs RTL 1000: Table 1, from FIG. 3A, one-binding site fit; for IC50 vs RTL 1000: rmCD74 50 nM, in µM
Description: as §1

[1] = test system: experimental autoimmune encephalomyelitis (EAE); settings: mice with EAE, treated after onset of clinical signs; cited from earlier work

Row | Molecule | blocking of rmCD74 binding to human MIF (in words) (human MIF (hMIF)) | competition with CD74 for binding to DRα1-mMOG-35-55 (in words) (DRα1mMOG-35-55) | competition with CD74 for binding to DRα1-mMOG-35-55 (in words) (DRα1mMOG-35-55; listed as SEQ ID NO: 4) | IC50 (DRα1mMOG-35-55) [µM] | LogIC50 vs DRα1mMOG-35-55 (DRα1mMOG-35-55) | IC50 vs DRα1mMOG-35-55 (DRα1mMOG-35-55) | competition with CD74 for binding to RTL1000 (in words) (RTL1000) | LogIC50 vs RTL 1000 (RTL1000) | IC50 vs RTL 1000 (RTL1000) | blocking of rmCD74 binding to human MIF (in words) (human MIF (hMIF); listed as SEQ ID NO: 2) | effect on EAE (in words) [1]
1 | KGSFPENLRHLKNTMET [α-helix 2] | to a lesser extent | did not have a significant effect | competes to a lesser extent | 24.5 | 2.222 | 166.6 | competes to a lesser extent | 1.535 | 34.27 |  | 
2 | TEDHVMHLLQNAD [α-helix 1] | blocks CD74 binding to hMIF | able to outcompete |  | 35 | 1.002 | 10.05 | able to outcompete | 0.8309 | 6.775 | able to block | 
3 | DRα1-MOG-35-55: second generation derivative of RTL1000, partial MHC molecule DRα1 construct that binds CD74 (protein) MEVGWYRSPFSRVVHLYRNGKGGGGSLVPRGSGGGGIKEEHVIIQAEFYLNPDQSGEFMFDFDGDEIFHVDMAKKETVWRLEEFGRFASFEAQGALANIAVDKANLEIMTKRSNYTPITN |  |  |  |  |  |  |  |  |  |  | reduced disease severity
